{
  "source": "patent US11149040B2",
  "about": "“Fused triazole agonists of the APJ receptor” (AMGEN INC., priority 2017, dated 2021)",
  "data": [
    {"target": "human APJ receptor (Homo sapiens (Human), UniProt P35414)", "sequence (P35414 whole entry)": "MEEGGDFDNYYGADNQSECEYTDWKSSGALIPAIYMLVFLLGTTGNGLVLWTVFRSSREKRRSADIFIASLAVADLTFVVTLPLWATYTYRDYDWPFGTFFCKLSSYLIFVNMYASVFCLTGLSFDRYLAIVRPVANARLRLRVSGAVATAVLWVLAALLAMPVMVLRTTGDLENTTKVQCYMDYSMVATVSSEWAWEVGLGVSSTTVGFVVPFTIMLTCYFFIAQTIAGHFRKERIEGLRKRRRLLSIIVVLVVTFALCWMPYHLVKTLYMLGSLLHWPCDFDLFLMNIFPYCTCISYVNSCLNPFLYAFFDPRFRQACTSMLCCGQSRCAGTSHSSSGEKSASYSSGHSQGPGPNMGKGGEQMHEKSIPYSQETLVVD", "assay": "[35S]GTPγS binding assay on membranes from CHO cells stably expressing human APJ receptor", "assay_type": "biochemical", "details": "read-out: Activity hAPJ SPA EC50 IP", "summary_of_the_method": "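Membranes from CHO cells stably expressing FLAG-tagged human APJ; assay buffer GDP, MgCl2 and NaCl levels optimised beforehand. Incubation 90 min at RT, imager read-out. EC50 from non-linear regression on means of several independent experiments.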", "units": {"EC50": "nM"}, "values": [
      {"smiles": "COC[C@@H]1COc2ncccc2-c2nnc(NS(=O)(=O)[C@@H](C)[C@@H](OC(C)C)c3ncc(C)cn3)n21", "note": "(single isomer, unassigned) [Example 41.0, (1S,2S)-N-((5R)-5-(methoxymethyl)-5,6-dihydropyrido[3,2-f][1,2,4]triazolo[4,3-d][1,4]oxazepin-3-yl)-1-(5-methyl-2-pyrimidinyl)-1-(2-propanyloxy)-2-propanesulfonamide or (1S,2S)-N-((5S)-5-(methoxymethyl)-5,6-dihydropyrido[3,2-f][1,2,4]triazolo[4,3-d][1,4]oxazepin-3-yl)-1-(5-methyl-2-pyrimidinyl)-1-(2-propanyloxy)-2-propanesulfonamide]", "EC50": 44},
      {"smiles": "COC[C@@H]1COc2ncccc2-c2nnc(NS(=O)(=O)[C@@H](C)[C@@H](OC(C)C)c3ncc(Cl)cn3)n21", "note": "(single isomer, unassigned) [Example 44.0, (1S,2S)-1-(5-chloro-2-pyrimidinyl)-N-((5R)-5-(methoxymethyl)-5,6-dihydropyrido[3,2-f][1,2,4]triazolo[4,3-d][1,4]oxazepin-3-yl)-1-(2-propanyloxy)-2-propanesulfonamide or (1S,2S)-1-(5-chloro-2-pyrimidinyl)-N-((5S)-5-(methoxymethyl)-5,6-dihydropyrido[3,2-f][1,2,4]triazolo[4,3-d][1,4]oxazepin-3-yl)-1-(2-propanyloxy)-2-propanesulfonamide]", "EC50": 15},
      {"smiles": "COC[C@@H]1COc2ncccc2-c2nnc(NS(=O)(=O)[C@@H](C)[C@@H](OC(C)C)c3ncc(Cl)cn3)n21", "note": "(single isomer, unassigned) [Example 45.0, (1S,2S)-1-(5-chloro-2-pyrimidinyl)-N-((5R)-5-(methoxymethyl)-5,6-dihydropyrido[3,2-f][1,2,4]triazolo[4,3-d][1,4]oxazepin-3-yl)-1-(2-propanyloxy)-2-propanesulfonamide or (1S,2S)-1-(5-chloro-2-pyrimidinyl)-N-((5S)-5-(methoxymethyl)-5,6-dihydropyrido[3,2-f][1,2,4]triazolo[4,3-d][1,4]oxazepin-3-yl)-1-(2-propanyloxy)-2-propanesulfonamide]", "EC50": 160},
      {"smiles": "Cc1cnc([C@H](OC(C)C)[C@H](C)S(=O)(=O)Nc2nnc3n2-c2ccccc2/C=C\\CC3)nc1", "note": "(single isomer, unassigned) [Example 47.0, (P) (1S,2S)-N-((Z)-4,5-dihydrobenzo[g][1,2,4]triazolo[4,3-a]azocin-1-yl)-1-isopropoxy-1-(5-methylpyrimidin-2-yl)propane-2-sulfonamide or (M) (1S,2S)-N-((Z)-4,5-dihydrobenzo[g][1,2,4]triazolo[4,3-a]azocin-1-yl)-1-isopropoxy-1-(5-methylpyrimidin-2-yl)propane-2-sulfonamide]", "EC50": "> 12500"},
      {"smiles": "Cc1cnc([C@H](OC(C)C)[C@H](C)S(=O)(=O)Nc2nnc3n2-c2c(F)cccc2/C=C\\CC3)nc1", "note": "(single isomer, unassigned) [Example 48.0, (P)(1S,2S)-N-((Z)-11-Fluoro-4,5-dihydrobenzo[g][1,2,4]triazolo[4,3-a]azocin-1-yl)-1-isopropoxy-1-(5-methylpyrimidin-2-yl)propane-2-sulfonamide or (M)(1S,2S)-N-((Z)-11-fluoro-4,5-dihydrobenzo[g][1,2,4]triazolo[4,3-a]azocin-1-yl)-1-isopropoxy-1-(5-methylpyrimidin-2-yl)propane-2-sulfonamide]", "EC50": "> 12500"},
      {"smiles": "Cc1cnc([C@H](OC(C)C)[C@H](C)S(=O)(=O)Nc2nnc3n2-c2c(F)cccc2/C=C\\C[C@@H]3C)nc1", "note": "(single isomer, unassigned) [Example 50.0]", "EC50": 12},
      {"smiles": "Cc1cnc([C@H](OC(C)C)[C@H](C)S(=O)(=O)Nc2nnc3n2-c2c(F)cccc2/C=C\\C[C@@H]3C)nc1", "note": "(single isomer, unassigned) [Example 51.0]", "EC50": 8.6},
      {"smiles": "Cc1cnc([C@H](OC(C)C)[C@H](C)S(=O)(=O)Nc2nnc3n2-c2c(F)cccc2/C=C\\C[C@@H]3C)nc1", "note": "(single isomer, unassigned) [Example 52.0]", "EC50": "> 12500"},
      {"smiles": "Cc1cnc([C@H](OC(C)C)[C@H](C)S(=O)(=O)Nc2nnc3n2-c2c(F)cccc2/C=C\\C[C@@H]3C)nc1", "note": "(single isomer, unassigned) [Example 53.0]", "EC50": 220},
      {"smiles": "CO[C@H](c1ncc(C)cn1)[C@H](C)S(=O)(=O)Nc1nnc2n1[C@H](COC(C)C)COc1ncccc1-2", "note": "(single isomer, unassigned) [Example 63.0, (1R,2S)-N-((R)-5-(isopropoxymethyl)-5,6-dihydropyrido[3,2-f][1,2,4]triazolo[4,3-d][1,4]oxazepin-3-yl)-1-methoxy-1-(5-methylpyrimidin-2-yl)propane-2-sulfonamide or (1R,2S)-N-((S)-5-(isopropoxymethyl)-5,6-dihydropyrido[3,2-f][1,2,4]triazolo[4,3-d][1,4]oxazepin-3-yl)-1-methoxy-1-(5-methylpyrimidin-2-yl)propane-2-sulfonamide]", "EC50": 800},
      {"smiles": "CO[C@H](c1ncc(C)cn1)[C@H](C)S(=O)(=O)Nc1nnc2n1[C@H](COC(C)C)COc1ncccc1-2", "note": "(single isomer, unassigned) [Example 64.0, (1R,2S)-N-((R)-5-(isopropoxymethyl)-5,6-dihydropyrido[3,2-f][1,2,4]triazolo[4,3-d][1,4]oxazepin-3-yl)-1-methoxy-1-(5-methylpyrimidin-2-yl)propane-2-sulfonamide or (1R,2S)-N-((S)-5-(isopropoxymethyl)-5,6-dihydropyrido[3,2-f][1,2,4]triazolo[4,3-d][1,4]oxazepin-3-yl)-1-methoxy-1-(5-methylpyrimidin-2-yl)propane-2-sulfonamide]", "EC50": 640},
      {"smiles": "COC[C@@H]1COc2cnccc2-c2nnc(NS(=O)(=O)[C@@H](C)[C@@H](OC(C)C)c3ncc(C)cn3)n21", "note": "(single isomer, unassigned) [Example 66.0, (1S,2S)-N-((5R)-5-(methoxymethyl)-5,6-dihydropyrido[4,3-f][1,2,4]triazolo[4,3-d][1,4]oxazepin-3-yl)-1-(5-methyl-2-pyrimidinyl)-1-(2-propanyloxy)-2-propanesulfonamide or (1S,2S)-N-((5S)-5-(methoxymethyl)-5,6-dihydropyrido[4,3-f][1,2,4]triazolo[4,3-d][1,4]oxazepin-3-yl)-1-(5-methyl-2-pyrimidinyl)-1-(2-propanyloxy)-2-propanesulfonamide]", "EC50": 760},
      {"smiles": "COC[C@@H]1COc2ncccc2-c2nnc(NS(=O)(=O)[C@@H](C)[C@H](OC(C)C)c3ncc(C)cn3)n21", "note": "(single isomer, unassigned) [Example 67.0, (1R,2S)-N-((5R)-5-(methoxymethyl)-5,6-dihydropyrido[3,2-f][1,2,4]triazolo[4,3-d][1,4]oxazepin-3-yl)-1-(5-methyl-2-pyrimidinyl)-1-(2-propanyloxy)-2-propanesulfonamide or (1R,2S)-N-((5S)-5-(methoxymethyl)-5,6-dihydropyrido[3,2-f][1,2,4]triazolo[4,3-d][1,4]oxazepin-3-yl)-1-(5-methyl-2-pyrimidinyl)-1-(2-propanyloxy)-2-propanesulfonamide]", "EC50": 250}
    ]}
  ]
}
